Experimental data taken from patent publication US20220332799A1, “HERV INHIBITORS FOR USE IN TREATING TAUOPATHIES” (Deutsches Zentrum Für Neurodegenerative Erkrankungen E.V. …, priority 2019, published 2022).
Entries after “also recorded” stand apart in the source; their conditions may differ.

Key:
HEK NM-mCherry^sol cells = experiment: NM-mCherry aggregate induction by coculture with T47D NM-GFP^agg donor cells; assay type: cell-based, human; conditions: 10 μM, donors 1 d pretreated, coculture 1 d in presence of drug; vs DMSO
N2a NM-GFP^sol cells = experiment: NM-GFP aggregate induction in recipient cells by EVs from donor clone N2a NM-HA^agg s2E; assay type: cell-based, mouse; conditions: EVs isolated from donors treated with 10 μM for 3 days; no drug on recipients, 16 h
Procedure: To prepare EV-depleted medium, FCS was ultracentrifuged at 100,000×g for 20 h at 4° C. Medium supplemented with the EV-depleted FCS and antibiotics was subsequently filtered through […] and a 0.1 μM filter-sterilization devices (Millipore). For EV isolation, 2-4×10^6 cells were seeded in T175 flasks in 35 ml EV-depleted medium to reach confluence after 3 days. Cells and cell debris were pelleted by differential centrifugation (300×g, 10 min; 2,000×g, 20 min; 16,000×g, 30 min, 4° C.). The remaining supernatant (conditioned medium) was subjected to ultracentrifugation at 100,000×g for 1 h at 4° C. using rotors Ti45 or SW32Ti (Beckman Coulter). The pellet was rinsed in PBS and spun again using rotor SW55Ti at 100,000×g for 1 h at 4° C.
Recipient cells were cultured on CellCarrier-96 plates or 384 black microplates (PerkinElmer) at appropriate cell numbers for 1 h, and then treated with 5-10 μl of prepared samples (isolated EVs or recombinant NM fibrils). […] On average, a total of 3-4×10^4 cells per well and at least 3 wells per treatment were analyzed.
The treatment of cells with Amprenavir (10 μM; Santa Cruz) and DMSO was performed for 72 h in EV-depleted medium in T175 flasks. Afterwards, the total numbers of viable cells and the viability upon drug treatment were determined using the Vi-VELL™ XR Cell Viability Analyzer (Beckman Coulter). […]

Compound: CC(C)CN(C[C@@H](O)[C@H](Cc1ccccc1)NC(=O)O[C@H]1CCOC1)S(=O)(=O)c1ccc(N)cc1 [Amprenavir]
- number of recipient cells with induced NM-mCherry aggregates (HEK NM-mCherry^sol cells): reduced the number of recipient cells with induced NM-mCherry aggregates compared to the DMSO control; also recorded: impairs NM-mCherry aggregate induction
- EV-mediated aggregate induction in recipient cells (N2a NM-GFP^sol cells): basically abolished EV-mediated aggregate induction in recipient cells
